Measurements: patent publication US8071336B2, “Antibody-based therapeutics with enhanced ADCC activity” (Genzyme Corporation, priority 2005, dated 2011)

How the values were obtained:
[1] = tested on: Hybridoma cells expressing TEM mAb A; test: N-glycans of TEM mAb A from inhibitor-treated hybridoma cells (MALDI-TOF MS); format: cell-based; conditions: 20 μg/ml mannostatin A, 0.5 mM NB-DNJ, or 2 μg/ml kifunensine at days 0 and 2
Description: Hybridoma cells expressing TEM mAb A, an antibody against a tumor vascular associated antigen, were grown in medium containing 1% fetal bovine serum with low IgG (Invitrogen Corp.), 5 μg/ml bovine insulin, 5 μg/ml human transferrin, 0.01 mM ethanolamine and 25 nM sodium selenite. Cells were treated once with the following inhibitors: 20 μg/ml mannostatin A, and 0.5 mM NB-DNJ for 4 days; and twice with 2 μg/ml kifunensine at days 0 and 2; or cultured without inhibitors (“control”).
N-linked glycans from antibodies purified as described in Example 1 were released with PNGase F. After filtration through 10 kDa filters, the filtrates were treated with Dowex AG-50 (H^+), AG501, and […] sequentially. Aliquots of samples were applied to a target, followed by sDHB matrix. The MALDI-TOF mass spectra were acquired using a Voyager-DE PRO Biospectrometry Workstation (Applied Biosystems, Foster City, Calif., USA) in the positive-ion and reflective mode.

[2] = tested on: CHO cell clone expressing TEM mAb A; test: Titration of kifunensine concentration, N-glycans of TEM mAb A (MALDI-TOF MS); format: cell-based, Chinese hamster; conditions: for glycan structures of the expressed antibody: 11 days
Description: To investigate the impact of mixed oligomannose and complex-type glycans on antibody function, cells expressing TEM mAb A were treated with various amounts of kifunensine. In the first experiment, a CHO cell clone expressing TEM mAb A was treated with 0, 4, 20, 100, 500 and 2500 ng/ml of kifunensine for 11 days. The medium was harvested, and the antibody was purified using a protein A column. Fractions containing protein peaks were pooled and dialyzed into PBS. A second titration experiment was performed with a narrower range of kifunensine concentration, specifically, from 20 to 100 ng/ml. After treatment for 11 days, 50 ml of medium from each treatment condition was harvested, and the antibody was purified. Peak-containing fractions were pooled, buffer-exchanged into PBS using Centricon® filters with repeated centrifugation. Aliquots of TEM mAb A antibody samples were applied to a 4-12% NuPAGE and stained with Coomassie blue to confirm purity. The amount of fucosylated and non-fucosylated glycans in antibodies from each kifunensine treatment in the second titration experiment was estimated by calculating the area of each individual glycan peak in MALDI-TOF MS spectra.

[3] = tested on: CHO cells expressing TEM mAb B; test: Batch cultures of CHO cells expressing TEM mAb B treated with kifunensine (shaker flasks); format: cell-based, Chinese hamster
Description: The production of TEM mAb B from batch cultures treated with various amounts of kifunensine or untreated was evaluated. CHO cells in shaker flasks were treated with 0, 0.5, 1, 1.5, or 2 μg/ml in a single or three additions (4 days apart) and cultured for 11 days. Cell viability (using trypan blue) and cell counts were assessed at least every other day.

[4] = after removal of most of the galactose residues; cited from earlier work
[5] = after removal of most of the galactose residues; cited from earlier work; remark: listed apart in the source

Compound: CCCCN1C[C@H](O)[C@@H](O)[C@H](O)[C@H]1CO [NB-DNJ, N-butyl-DNJ]
- effect on glycosylation of the expressed antibody [1]: significant amounts of Glc1Man9GlcGNAc2 (Man9Glc)

Compound: O=C1N[C@@H]2[C@@H](O)[C@@H](O)[C@H](O)[C@@H](CO)N2C1=O [kifunensine]
- glycan structures of the expressed antibody ([2]; 20 ng/ml kifunensine): only a small amount of oligomannose structures (Man5/Man6)
- non-fucosylated glycans of the expressed antibody ([2]; 60 ng/ml or higher kifunensine, estimated from MALDI-TOF MS peak areas): > 80%
- glycan structures of the expressed antibody ([2]; 100 ng/ml kifunensine): complete oligomannose structures
- effect on glycosylation of the expressed antibody [1]: more effective in blocking the glycosylation to complex-type structures than NB-DNJ
- Xvmax (viable cells at day of peak cell density) ([3]; 0.5 μg/ml kif sup. 3x (three additions), 11 days): 3.5 ×10^6 cells
- Xvmax (viable cells at day of peak cell density) ([3]; 0.5 μg/ml kif, single addition, 11 days): 3.5 ×10^6 cells
- Xvmax (viable cells at day of peak cell density) ([3]; 1 μg/ml kif sup. 3x (three additions), 11 days): 1.6 ×10^6 cells
- Xvmax (viable cells at day of peak cell density) ([3]; 1 μg/ml kif, single addition, 11 days): 2.7 ×10^6 cells
- Xvmax (viable cells at day of peak cell density) ([3]; 1.5 μg/ml kif sup. 3x (three additions), 11 days): 1.6 ×10^6 cells
- Xvmax (viable cells at day of peak cell density) ([3]; 1.5 μg/ml kif, single addition, 11 days): 3.8 ×10^6 cells
- Xvmax (viable cells at day of peak cell density) ([3]; 2 μg/ml kif sup. 3x (three additions), 11 days): 1.7 ×10^6 cells
- Xvmax (viable cells at day of peak cell density) ([3]; 2 μg/ml kif, single addition, 11 days): 2.1 ×10^6 cells
- cell viability (trypan blue) ([3]; FIG. 10A, 0 to 2 μg/ml kifunensine, 1 or 3 additions, 11 days): comparable
- cell density ([3]; FIG. 10B, kifunensine-treated vs untreated cells): lower
- glycan structures of the expressed antibody ([3]; single kifunensine treatment at 0.5 μg/ml): enough to result in the production of oligomannose-type structures
- cell density ([3]; three additions of kifunensine vs untreated control or single treatment): much lower cell density

Compound: CS[C@@H]1[C@@H](N)[C@@H](O)[C@@H](O)[C@H]1O [mannostatin A]
- effect on glycosylation of the expressed antibody [1]: No alteration in glycosylation

Compound: Campath®: a humanized mAb IgG1
- ADCC [4]: no effect on ADCC
- complement lysis activity [5]: reduced complement lysis activity
